Measurements as given in patent US20240376099A1, “COMPOUNDS AND COMPOSITIONS AS INHIBITORS OF ENDOSOMAL TOLL-LIKE RECEPTORS” (Novartis AG, priority 2016, published 2024).

These compounds were tested against T1, TLR8 (Homo sapiens, UniProt Q9NR97) (assay: huPBMC TLR8 Antagonist IL-6 TR-FRET Assay). Conditions: human PBMCs stimulated with ssRNA40 1 μg/ml (DOTAP), 14-16 hrs; IL-6 TR-FRET read-out.
T1 sequence (Q9NR97 27-1041): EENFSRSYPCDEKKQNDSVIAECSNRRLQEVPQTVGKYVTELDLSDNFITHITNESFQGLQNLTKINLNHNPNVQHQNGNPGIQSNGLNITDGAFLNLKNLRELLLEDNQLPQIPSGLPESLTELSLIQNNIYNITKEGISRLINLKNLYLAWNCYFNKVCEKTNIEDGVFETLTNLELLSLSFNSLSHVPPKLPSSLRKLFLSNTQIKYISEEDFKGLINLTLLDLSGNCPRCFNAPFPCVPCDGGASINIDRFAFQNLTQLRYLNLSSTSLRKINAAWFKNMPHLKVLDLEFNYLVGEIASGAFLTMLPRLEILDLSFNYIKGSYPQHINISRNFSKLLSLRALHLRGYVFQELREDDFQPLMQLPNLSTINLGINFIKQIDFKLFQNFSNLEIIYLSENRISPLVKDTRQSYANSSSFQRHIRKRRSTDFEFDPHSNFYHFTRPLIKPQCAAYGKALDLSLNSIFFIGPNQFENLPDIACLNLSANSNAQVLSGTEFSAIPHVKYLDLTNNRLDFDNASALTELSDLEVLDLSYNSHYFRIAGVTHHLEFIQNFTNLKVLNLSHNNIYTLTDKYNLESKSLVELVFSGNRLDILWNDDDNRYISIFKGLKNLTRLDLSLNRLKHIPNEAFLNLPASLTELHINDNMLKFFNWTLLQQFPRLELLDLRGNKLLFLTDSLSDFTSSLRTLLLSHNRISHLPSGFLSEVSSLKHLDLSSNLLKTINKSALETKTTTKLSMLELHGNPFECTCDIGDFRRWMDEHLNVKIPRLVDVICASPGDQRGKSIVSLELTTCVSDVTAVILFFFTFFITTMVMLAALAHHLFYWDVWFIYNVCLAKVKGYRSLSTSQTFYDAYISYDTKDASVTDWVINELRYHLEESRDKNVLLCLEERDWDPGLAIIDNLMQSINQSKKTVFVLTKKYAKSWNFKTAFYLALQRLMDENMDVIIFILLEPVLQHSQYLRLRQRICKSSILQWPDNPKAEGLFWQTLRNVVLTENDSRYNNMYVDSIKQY
Format: cell-based
Set-up: Fresh blood was collected from normal human donors; endogenous in cells; host or cells: human PBMCs from fresh donor blood
Summary of the method: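 Human PBMCs from fresh donor blood (150,000 cells/well) stimulated 14–16 h at 37 °C with DOTAP-complexed ssRNA40 (final 1 μg/ml for TLR8, 10 μg/mL for TLR7) or ODN2216 (final 0.3 μM, TLR9), 0.25% DMSO, ten-point 1/3 compound dilutions. Supernatant IL-6 read by HTRF (TLR8); IFNα by IFNα2b AlphaLISA (TLR7/TLR9).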
For Cc1cc(N2CCc3c(c(C)nn3CC34CCC(NCC(C)(C)O)(CC3)CC4)C2)c2cnn(C)c2n1 [compound 123, 1-((4-((5-(1,6-dimethyl-1H-pyrazolo[3,4-b]pyridin-4-yl)-3-methyl-4,5,6,7-tetrahydro-1H-pyrazolo[4,3-c]pyridin-1-yl)methyl)bicyclo[2.2.2]octan-1-yl)amino)-2-methylpropan-2-ol], the IC50 was 121 nM.
With CCNCC(=O)NC12CCC(Cn3nc(C)c4c3CCN(c3cc(C)nc5cn[nH]c35)C4)(CC1)CC2 [compound 124, 2-(ethylamino)-N-(4-((3-methyl-5-(5-methyl-1H-pyrazolo[4,3-b]pyridin-7-yl)-4,5,6,7-tetrahydro-1H-pyrazolo[4,3-c]pyridin-1-yl)methyl)bicyclo[2.2.2]octan-1-yl)acetamide] the IC50 was > 10000 nM.
Cc1cc(N2CCc3c(c(C)nn3CC34CCC(NC(=O)C5CNCCO5)(CC3)CC4)C2)c2cnn(C)c2n1 (centres unmarked) [compound 125, N-(4-((5-(1,6-dimethyl-1H-pyrazolo[3,4-b]pyridin-4-yl)-3-methyl-4,5,6,7-tetrahydro-1H-pyrazolo[4,3-c]pyridin-1-yl)methyl)bicyclo[2.2.2]octan-1-yl)morpholine-2-carboxamide] gave an IC50 of 43 nM.
With CCNCCC(=O)NC12CCC(Cn3nc(C)c4c3CCN(c3cc(C)nc5c3cnn5C)C4)(CC1)CC2 [compound 126, N-(4-((5-(1,6-dimethyl-1H-pyrazolo[3,4-b]pyridin-4-yl)-3-methyl-4,5,6,7-tetrahydro-1H-pyrazolo[4,3-c]pyridin-1-yl)methyl)bicyclo[2.2.2]octan-1-yl)-3-(ethylamino)propanamide] the IC50 was 153 nM.
In the case of CCNC12CCC(Cn3nc(C)c4c3CCN(c3ccnc(-c5ccccc5)c3)C4)(CC1)CC2 [compound 127, N-ethyl-4-((3-methyl-5-(2-phenylpyridin-4-yl)-4,5,6,7-tetrahydro-1H-pyrazolo[4,3-c]pyridin-1-yl)methyl)bicyclo[2.2.2]octan-1-amine], the IC50 is reported as 1430 nM.
Cc1cc(N2CCc3c(c(C)nn3CC34CCC(N5CCOC[C@@H]5C)(CC3)CC4)C2)c2cnn(C)c2n1 [compound 128, (S)-4-(4-((5-(1,6-dimethyl-1H-pyrazolo[3,4-b]pyridin-4-yl)-3-methyl-4,5,6,7-tetrahydro-1H-pyrazolo[4,3-c]pyridin-1-yl)methyl)bicyclo[2.2.2]octan-1-yl)-3-methylmorpholine] was tested, and the IC50 was 13 nM.
Cc1cc(N2CCc3c(c(C)nn3CC34CCC(N5CCOC[C@H]5C)(CC3)CC4)C2)c2cnn(C)c2n1 [compound 129, (R)-4-(4-((5-(1,6-dimethyl-1H-pyrazolo[3,4-b]pyridin-4-yl)-3-methyl-4,5,6,7-tetrahydro-1H-pyrazolo[4,3-c]pyridin-1-yl)methyl)bicyclo[2.2.2]octan-1-yl)-3-methylmorpholine] showed an IC50 of 12 nM.
Work on COCCNC12CCC(Cn3nc(C)c4c3CCN(c3ccnc(-c5ccccc5)c3)C4)(CC1)CC2 [compound 130, N-(2-methoxyethyl)-4-((3-methyl-5-(2-phenylpyridin-4-yl)-4,5,6,7-tetrahydro-1H-pyrazolo[4,3-c]pyridin-1-yl)methyl)bicyclo[2.2.2]octan-1-amine] yielded an IC50 of 2830 nM.
Work on Cc1cc(N2CCc3c(c(C)nn3CC34CCC(NC(=O)C5CNC5)(CC3)CC4)C2)c2cnn(C)c2n1 [compound 131, N-(4-((5-(1,6-dimethyl-1H-pyrazolo[3,4-b]pyridin-4-yl)-3-methyl-4,5,6,7-tetrahydro-1H-pyrazolo[4,3-c]pyridin-1-yl)methyl)bicyclo[2.2.2]octan-1-yl)azetidine-3-carboxamide] yielded an IC50 of 361 nM.
With CCN(C)CC(=O)NC12CCC(Cn3nc(C)c4c3CCN(c3cc(C)nc5c3cnn5C)C4)(CC1)CC2 [compound 132, N-(4-((5-(1,6-dimethyl-1H-pyrazolo[3,4-b]pyridin-4-yl)-3-methyl-4,5,6,7-tetrahydro-1H-pyrazolo[4,3-c]pyridin-1-yl)methyl)bicyclo[2.2.2]octan-1-yl)-2-(ethyl(methyl)amino)acetamide] the IC50 was 8 nM.
In the case of [2H]C([2H])([2H])N(CC(=O)NC12CCC(Cn3nc(C)c4c3CCN(c3cc(C)nc5c3cnn5C)C4)(CC1)CC2)C([2H])([2H])[2H] [compound 134, 2-(bis(trideuteromethyl)amino)-N-(4-((5-(1,6-dimethyl-1H-pyrazolo[3,4-b]pyridin-4-yl)-3-methyl-4,5,6,7-tetrahydro-1H-pyrazolo[4,3-c]pyridin-1-yl)methyl)bicyclo[2.2.2]octan-1-yl)acetamide], the IC50 is reported as 93 nM.
Cc1cc(N2CCc3c(c(C)nn3CC34CCC(NCC5(CO)COC5)(CC3)CC4)C2)c2cnn(C)c2n1 [compound 137, (3-(((4-((5-(1,6-dimethyl-1H-pyrazolo[3,4-b]pyridin-4-yl)-3-methyl-4,5,6,7-tetrahydro-1H-pyrazolo[4,3-c]pyridin-1-yl)methyl)bicyclo[2.2.2]octan-1-yl)amino)methyl)oxetan-3-yl)methanol] showed an IC50 of 68 nM.
CCn1ncc2c(N3CCc4c(c(C)nn4CC45CCC(NC(=O)[C@@H]6COCCN6)(CC4)CC5)C3)cc(C)nc21 [compound 141, (S)-N-(4-((5-(1-ethyl-6-methyl-1H-pyrazolo[3,4-b]pyridin-4-yl)-3-methyl-4,5,6,7-tetrahydro-1H-pyrazolo[4,3-c]pyridin-1-yl)methyl)bicyclo[2.2.2]octan-1-yl)morpholine-3-carboxamide] showed an IC50 of 2290 nM.
CNCCC(=O)NC12CCC(Cn3nc(C)c4c3CCN(c3cc(C)nc5c3cnn5C)C4)(CC1)CC2 [compound 142, N-(4-((5-(1,6-dimethyl-1H-pyrazolo[3,4-b]pyridin-4-yl)-3-methyl-4,5,6,7-tetrahydro-1H-pyrazolo[4,3-c]pyridin-1-yl)methyl)bicyclo[2.2.2]octan-1-yl)-3-(methylamino)propanamide] was tested, and the IC50 was 932 nM.
Cc1cc(N2CCc3c(c(C)nn3CC34CCC(NC5CCC5)(CC3)CO4)C2)c2cnn(C)c2n1 [compound 143, N-cyclobutyl-1-((5-(1,6-dimethyl-1H-pyrazolo[3,4-b]pyridin-4-yl)-3-methyl-4,5,6,7-tetrahydro-1H-pyrazolo[4,3-c]pyridin-1-yl)methyl)-2-oxabicyclo[2.2.2]octan-4-amine] showed an IC50 of 687 nM.
Cc1nn(CC23CCC(NC4CCC4)(CC2)CC3)c2c1CN(c1ccnc(-c3ccccc3)c1)CC2 [compound 144, N-cyclobutyl-4-((3-methyl-5-(2-phenylpyridin-4-yl)-4,5,6,7-tetrahydro-1H-pyrazolo[4,3-c]pyridin-1-yl)methyl)bicyclo[2.2.2]octan-1-amine] gave an IC50 of 105 nM.
Cc1cc(N2CCc3c(c(C)nn3CC34CCC(NC(=O)OC(C)(C)C)(CC3)C4)C2)c2cnn(C)c2n1 [compound 148, tert-butyl (4-((5-(1,6-dimethyl-1H-pyrazolo[3,4-b]pyridin-4-yl)-3-methyl-4,5,6,7-tetrahydro-1H-pyrazolo[4,3-c]pyridin-1-yl)methyl)bicyclo[2.2.1]heptan-1-yl)carbamate] was tested, and the IC50 was > 10000 nM.
